Experimental data reported in patent EP4745137A1 (Gluetacs Therapeutics (Shanghai) Co., Ltd., priority 2023, dated 2025).
pIC50: −log10 of the molar value.

Assays:
MM.1R = test: Tumor cell proliferation inhibition (CellTiter-Meiluncell Luminescent Cell Viability Assay), MM.1R; settings: Homo sapiens, 96 h, read-out: inhibitory activity (IC50, nM) against tumor cells proliferation, MM.1R
IKZF1 = molecular target: T1, IKZF1 (Homo sapiens, UniProt Q13422+Q96SW2); test: Western-blot assay of substrate protein degradation in hPBMCs, IKZF1; assay type: cell-based; settings: 24 hours of compound treatment, compounds tested at 50 nM and 500 nM (concentration of the table not stated)
T1 construct: endogenous in cells; host or cells: hPBMCs (Milecell Biotechnologies)
T1 sequence (Q13422 whole entry): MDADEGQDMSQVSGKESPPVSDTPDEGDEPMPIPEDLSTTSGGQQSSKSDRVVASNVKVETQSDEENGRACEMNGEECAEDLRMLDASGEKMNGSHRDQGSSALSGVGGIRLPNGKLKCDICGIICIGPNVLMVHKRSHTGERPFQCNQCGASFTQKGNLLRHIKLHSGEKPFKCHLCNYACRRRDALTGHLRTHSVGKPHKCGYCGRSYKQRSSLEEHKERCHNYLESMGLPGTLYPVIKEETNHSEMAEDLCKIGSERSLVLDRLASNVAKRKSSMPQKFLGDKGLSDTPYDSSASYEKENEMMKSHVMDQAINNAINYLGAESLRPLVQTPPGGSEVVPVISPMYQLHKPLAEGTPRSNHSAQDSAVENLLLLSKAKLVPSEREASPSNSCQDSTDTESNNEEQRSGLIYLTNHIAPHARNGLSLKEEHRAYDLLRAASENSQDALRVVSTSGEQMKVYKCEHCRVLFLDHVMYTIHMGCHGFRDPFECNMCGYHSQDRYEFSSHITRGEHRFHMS
T1 sequence (Q96SW2 whole entry): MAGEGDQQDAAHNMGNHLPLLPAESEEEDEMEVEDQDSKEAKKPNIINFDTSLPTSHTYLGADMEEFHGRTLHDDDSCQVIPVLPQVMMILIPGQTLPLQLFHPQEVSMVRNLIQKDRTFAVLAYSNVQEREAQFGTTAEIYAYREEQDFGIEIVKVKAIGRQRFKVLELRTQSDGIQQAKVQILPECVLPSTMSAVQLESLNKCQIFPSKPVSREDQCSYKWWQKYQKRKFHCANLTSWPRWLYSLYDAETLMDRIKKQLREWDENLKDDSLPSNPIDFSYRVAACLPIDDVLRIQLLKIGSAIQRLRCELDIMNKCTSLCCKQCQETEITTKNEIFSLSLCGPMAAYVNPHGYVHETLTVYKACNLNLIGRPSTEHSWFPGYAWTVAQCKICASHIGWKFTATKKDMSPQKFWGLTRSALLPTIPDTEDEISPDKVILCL
T1 sequence (Q16531 whole entry partner): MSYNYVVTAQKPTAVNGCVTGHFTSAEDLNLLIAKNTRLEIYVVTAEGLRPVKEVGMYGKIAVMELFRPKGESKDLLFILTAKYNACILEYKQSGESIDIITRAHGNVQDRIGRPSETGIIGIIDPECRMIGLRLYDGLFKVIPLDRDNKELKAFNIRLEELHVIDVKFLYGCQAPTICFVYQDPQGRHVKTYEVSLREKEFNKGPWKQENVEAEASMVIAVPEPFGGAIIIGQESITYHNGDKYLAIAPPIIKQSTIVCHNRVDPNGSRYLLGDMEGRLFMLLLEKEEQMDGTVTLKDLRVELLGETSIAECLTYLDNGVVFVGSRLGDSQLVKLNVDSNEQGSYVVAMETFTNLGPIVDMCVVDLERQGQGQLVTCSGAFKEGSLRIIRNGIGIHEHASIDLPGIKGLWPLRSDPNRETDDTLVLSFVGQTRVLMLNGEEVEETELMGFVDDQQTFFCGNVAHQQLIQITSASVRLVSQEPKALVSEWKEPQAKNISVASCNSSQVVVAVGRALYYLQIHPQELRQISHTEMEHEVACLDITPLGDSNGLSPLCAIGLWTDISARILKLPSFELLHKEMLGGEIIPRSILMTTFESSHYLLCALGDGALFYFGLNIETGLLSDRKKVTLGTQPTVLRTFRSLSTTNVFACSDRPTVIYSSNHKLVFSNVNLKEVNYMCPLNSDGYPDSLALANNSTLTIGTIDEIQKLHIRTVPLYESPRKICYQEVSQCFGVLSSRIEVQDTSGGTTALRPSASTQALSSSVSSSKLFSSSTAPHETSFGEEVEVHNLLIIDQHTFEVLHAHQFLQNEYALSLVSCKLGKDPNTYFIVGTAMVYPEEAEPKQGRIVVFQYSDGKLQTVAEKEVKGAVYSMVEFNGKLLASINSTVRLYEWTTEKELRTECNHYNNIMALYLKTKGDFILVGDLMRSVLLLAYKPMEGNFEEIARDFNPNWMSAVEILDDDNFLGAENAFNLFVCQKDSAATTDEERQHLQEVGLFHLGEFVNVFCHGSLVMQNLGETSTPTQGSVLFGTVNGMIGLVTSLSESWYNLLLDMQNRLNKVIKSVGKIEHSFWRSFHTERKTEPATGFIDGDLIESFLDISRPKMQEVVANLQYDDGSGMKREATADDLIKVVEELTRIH

[1] = test system: Human acute T lymphocytic leukemia cells (Molt-4); test: Tumor cell proliferation inhibition (CellTiter-Meiluncell Luminescent Cell Viability Assay), Molt-4; settings: MOLT-4, 96 h, read-out: inhibitory activity (IC50, nM) against tumor cells proliferation, Molt 4
CAL-62 = test: Tumor cell proliferation inhibition (CellTiter-Meiluncell Luminescent Cell Viability Assay), CAL-62; settings: Homo sapiens, CAL-62, 96 h, read-out: inhibitory activity (IC50, nM) against tumor cells proliferation, CAL-62
IKZF2 = molecular target: T2, IKZF2 (Homo sapiens, UniProt Q96SW2+Q9UKS7); test: Western-blot assay of substrate protein degradation in hPBMCs, IKZF2; assay type: cell-based; settings: 24 hours of compound treatment, compounds tested at 50 nM and 500 nM (concentration of the table not stated)
T2 construct: endogenous in cells; host or cells: hPBMCs (Milecell Biotechnologies)
T2 sequence (Q9UKS7 whole entry): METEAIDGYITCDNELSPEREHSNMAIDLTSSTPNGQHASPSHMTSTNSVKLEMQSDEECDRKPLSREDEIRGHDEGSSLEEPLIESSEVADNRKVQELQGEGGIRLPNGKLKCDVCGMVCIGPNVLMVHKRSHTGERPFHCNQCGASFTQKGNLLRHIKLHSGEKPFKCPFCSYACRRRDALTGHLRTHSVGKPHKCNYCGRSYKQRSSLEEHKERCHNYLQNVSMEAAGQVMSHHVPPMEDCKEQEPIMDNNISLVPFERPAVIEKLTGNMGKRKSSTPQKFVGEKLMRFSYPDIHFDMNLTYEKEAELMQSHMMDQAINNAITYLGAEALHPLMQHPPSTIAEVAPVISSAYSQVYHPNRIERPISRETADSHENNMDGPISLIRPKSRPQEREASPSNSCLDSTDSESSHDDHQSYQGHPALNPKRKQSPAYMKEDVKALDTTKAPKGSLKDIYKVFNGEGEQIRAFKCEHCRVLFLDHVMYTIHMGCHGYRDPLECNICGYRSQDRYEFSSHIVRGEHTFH
T2 sequence (Q96SW2 whole entry): as the sequence (Q96SW2 whole entry) above
T2 sequence (Q16531 whole entry partner): as the sequence (Q16531 whole entry partner) above

Jurkat = test: Tumor cell proliferation inhibition (CellTiter-Meiluncell Luminescent Cell Viability Assay), Jurkat; settings: Homo sapiens, 96 h, read-out: inhibitory activity (IC50, nM) against tumor cells proliferation, Jurkat
Protocol: (§1) The tumor cells used herein were cultured in a cell culture medium listed in table 2 at 37°C in an incubator with 5% CO2. Prior to experimentation, all cell lines used were correctly identified by STR profiling, and tested negative for mycoplasma contamination using a mycoplasma detection kit through routine screenings.
(§2) On the following day, the test compounds of the present disclosure were subjected to serial dilution. […] Subsequently, 0.5 µL of the test compound dilution was transferred into the 96-well plate containing the cells, with each well containing 100 µL of cell culture medium. […] Into the 96-well plate, the diluted test compounds and corresponding detection reagents were added, resulting in final test compound concentrations of 500 nM and 10 nM, respectively. The experimental procedure is described below using the diluted 2 µM test compound as an example.
(§3) After the cells were treated with the compounds of the present disclosure for a specified period (the treatment durations were shown in Table 3), the cell viability assay reagent was added to the culture medium according to the kit's instructions to determine cell viability. […] All controls were treated using the same procedure as the compounds of the present disclosure. The growth inhibition curves for the compounds of the present disclosure were plotted using Prism GraphPad software, and the IC50 values were calculated therefrom.

WEE1 = molecular target: T3, WEE1 (Homo sapiens, UniProt P30291+Q96SW2); test: Western-blot assay of substrate protein degradation in hPBMCs, WEE1; assay type: cell-based; settings: 24 hours of compound treatment, compounds tested at 50 nM and 500 nM (concentration of the table not stated)
T3 construct: endogenous in cells; host or cells: hPBMCs (Milecell Biotechnologies)
T3 sequence (P30291 whole entry): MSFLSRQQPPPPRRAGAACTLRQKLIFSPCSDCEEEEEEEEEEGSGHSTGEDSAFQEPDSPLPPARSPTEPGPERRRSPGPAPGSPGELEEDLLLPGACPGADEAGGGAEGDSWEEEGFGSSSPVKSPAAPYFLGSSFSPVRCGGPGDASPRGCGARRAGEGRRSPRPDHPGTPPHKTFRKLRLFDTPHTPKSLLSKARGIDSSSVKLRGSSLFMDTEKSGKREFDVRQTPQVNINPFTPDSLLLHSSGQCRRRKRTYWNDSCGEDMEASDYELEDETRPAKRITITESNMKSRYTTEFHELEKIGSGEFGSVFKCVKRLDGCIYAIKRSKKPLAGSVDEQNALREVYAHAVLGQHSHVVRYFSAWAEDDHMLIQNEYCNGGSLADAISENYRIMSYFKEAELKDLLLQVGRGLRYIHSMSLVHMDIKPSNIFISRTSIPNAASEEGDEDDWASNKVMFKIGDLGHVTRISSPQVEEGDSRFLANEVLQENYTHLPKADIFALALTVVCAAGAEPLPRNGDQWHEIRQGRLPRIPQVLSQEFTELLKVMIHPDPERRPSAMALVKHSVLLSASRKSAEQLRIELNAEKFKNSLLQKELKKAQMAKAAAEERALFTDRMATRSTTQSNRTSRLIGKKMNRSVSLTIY
T3 sequence (Q96SW2 whole entry): as the sequence (Q96SW2 whole entry) above
T3 sequence (Q16531 whole entry partner): as the sequence (Q16531 whole entry partner) above

GSPT1 = molecular target: T4, GSPT1 (Homo sapiens, UniProt P15170+Q96SW2); test: Western-blot assay of substrate protein degradation in hPBMCs, GSPT1; assay type: cell-based; settings: 24 hours of compound treatment, compounds tested at 50 nM and 500 nM (concentration of the table not stated)
T4 construct: endogenous in cells; host or cells: hPBMCs (Milecell Biotechnologies)
T4 sequence (P15170 whole entry): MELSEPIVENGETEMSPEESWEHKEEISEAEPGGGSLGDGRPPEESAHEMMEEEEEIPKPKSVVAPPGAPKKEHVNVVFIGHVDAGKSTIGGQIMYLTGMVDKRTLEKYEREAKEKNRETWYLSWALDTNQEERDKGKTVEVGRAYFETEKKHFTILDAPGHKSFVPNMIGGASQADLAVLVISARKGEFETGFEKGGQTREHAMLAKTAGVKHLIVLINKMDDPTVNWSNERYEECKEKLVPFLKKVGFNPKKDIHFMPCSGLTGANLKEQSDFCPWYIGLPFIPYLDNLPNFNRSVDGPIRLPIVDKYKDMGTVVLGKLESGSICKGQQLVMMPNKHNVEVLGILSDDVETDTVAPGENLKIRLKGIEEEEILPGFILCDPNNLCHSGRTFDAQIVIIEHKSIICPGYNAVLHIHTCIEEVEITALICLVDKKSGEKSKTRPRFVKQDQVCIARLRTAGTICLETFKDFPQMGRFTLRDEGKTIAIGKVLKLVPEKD
T4 sequence (Q96SW2 whole entry): as the sequence (Q96SW2 whole entry) above
T4 sequence (Q16531 whole entry partner): as the sequence (Q16531 whole entry partner) above

CK1α = molecular target: T5, CK1α (Homo sapiens, UniProt P48729+Q96SW2); test: Western-blot assay of substrate protein degradation in hPBMCs, CK1α; assay type: cell-based; settings: 24 hours of compound treatment, compounds tested at 50 nM and 500 nM (concentration of the table not stated)
T5 construct: endogenous in cells; host or cells: hPBMCs (Milecell Biotechnologies)

NCI-H1975 = test: Tumor cell proliferation inhibition (CellTiter-Meiluncell Luminescent Cell Viability Assay), NCI-H1975; settings: Homo sapiens, NCI-H1975, 96 h, read-out: inhibitory activity (IC50, nM) against tumor cells proliferation, H1975
[2] = test system: Human breast cancer cells (MDA-MB-231); test: Tumor cell proliferation inhibition (CellTiter-Meiluncell Luminescent Cell Viability Assay), MDA-MB-231; settings: MDA-MB-231, 96 h, read-out: inhibitory activity (IC50, nM) against tumor cells proliferation, MDA-MB-231
Protocol: as §1, §2, §3

IKZF3 = molecular target: T6, IKZF3 (Homo sapiens, UniProt Q96SW2+Q9UKT9); test: Western-blot assay of substrate protein degradation in hPBMCs, IKZF3; assay type: cell-based; settings: 24 hours of compound treatment, compounds tested at 50 nM and 500 nM (concentration of the table not stated)
T6 construct: endogenous in cells; host or cells: hPBMCs (Milecell Biotechnologies)
T6 sequence (Q9UKT9 whole entry): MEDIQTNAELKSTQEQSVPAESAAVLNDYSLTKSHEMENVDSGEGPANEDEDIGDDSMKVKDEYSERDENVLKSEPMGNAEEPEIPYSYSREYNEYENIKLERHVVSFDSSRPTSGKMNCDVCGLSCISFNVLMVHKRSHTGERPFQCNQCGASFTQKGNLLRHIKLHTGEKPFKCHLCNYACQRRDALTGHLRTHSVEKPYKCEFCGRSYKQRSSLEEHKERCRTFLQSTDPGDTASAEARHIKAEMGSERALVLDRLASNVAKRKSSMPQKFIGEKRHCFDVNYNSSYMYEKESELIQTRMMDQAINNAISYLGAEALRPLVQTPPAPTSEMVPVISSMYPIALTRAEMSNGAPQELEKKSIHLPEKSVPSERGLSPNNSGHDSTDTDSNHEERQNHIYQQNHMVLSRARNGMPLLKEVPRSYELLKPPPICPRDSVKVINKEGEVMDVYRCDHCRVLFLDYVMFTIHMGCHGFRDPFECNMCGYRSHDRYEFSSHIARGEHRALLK
T6 sequence (Q96SW2 whole entry): as the sequence (Q96SW2 whole entry) above
T6 sequence (Q16531 whole entry partner): as the sequence (Q16531 whole entry partner) above

[3] = molecular target: T7, human Cereblon WT GST-tagged protein (Homo sapiens, UniProt Q96SW2); test: CRBN-binding affinity by HTRF (CEREBLON BINDING kit); settings: HTRF inhibitory activity, CEREBLON BINDING kit; read-out: HTRF IC50
T7 construct: purchased CISBIO 64BDCRBNPEH
T7 sequence (Q96SW2 whole entry): as the sequence (Q96SW2 whole entry) above

Row | Compound | IC50 (MM.1R) [nM] | IC50 [1] [nM] | IC50 (CAL-62) [nM] | IC50 (Jurkat) [nM] | IC50 (NCI-H1975) [nM] | IC50 [2] [nM] | pIC50 [3] | IKZF 1 substrate protein remaining % (IKZF1) | IKZF2 substrate protein remaining % (IKZF2) | Weel substrate protein remaining % (WEE1) | GSPT1 substrate protein remaining % (GSPT1) | CK1a substrate protein remaining % (CK1α) | IKZF3 substrate protein remaining % (IKZF3)
1 | O=C1CCC(N2Cc3cc(CN4CC=C(c5cccc(F)c5Cl)CC4)ccc3C2=O)C(=O)N1 (stereo not drawn) [GT-04554, 3-(5-((4-(2-chloro-3-fluorophenyl)-3,6-dihydropyridin-1(2H)-yl)methyl)-1-oxoisoindolin-2-yl)piperidine-2,6-dione] | < 1 | < 1 | < 1 | < 1 | 1 to 5 | 1 to 5 | 6.00 to 6.30 | A (0% ≤ substrate protein remaining % ≤ 80%) | A (0% ≤ substrate protein remaining % ≤ 80%) | A (0% ≤ substrate protein remaining % ≤ 80%) | A (0% ≤ substrate protein remaining % ≤ 80%) | A (0% ≤ substrate protein remaining % ≤ 80%) | A (0% ≤ substrate protein remaining % ≤ 80%)
2 | O=C1CCC(N2Cc3cc(CN4CC=C(c5cccc(Cl)c5Cl)CC4)ccc3C2=O)C(=O)N1 (stereo not drawn) [GT-04550, 3-(5-((4-(2,3-dichlorophenyl)-3,6-dihydropyridin-1(2H)-yl)methyl)-1-oxoisoindolin-2-yl)piperidine-2,6-dione] | < 1 | < 1 | < 1 | < 1 | 1 to 5 | 1 to 5 | > 6.30 | A (0% ≤ substrate protein remaining % ≤ 80%) | A (0% ≤ substrate protein remaining % ≤ 80%) | A (0% ≤ substrate protein remaining % ≤ 80%) | A (0% ≤ substrate protein remaining % ≤ 80%) | A (0% ≤ substrate protein remaining % ≤ 80%) | A (0% ≤ substrate protein remaining % ≤ 80%)
3 | O=C1CCC(N2Cc3cc(CN4CCN(c5cccc(F)c5F)CC4)ccc3C2=O)C(=O)N1 (stereo not drawn) [GT-04515, 3-(5-((4-(2,3-difluorophenyl)piperazin-1-yl)methyl)-1-oxoisoindolin-2-yl)piperidine-2,6-dione] | 5 to 10 | 5 to 10 | 10 to 50 | 50 to 100 | 50 to 100 | 50 to 100 | 6.00 to 6.30 | A (0% ≤ substrate protein remaining % ≤ 80%) | A (0% ≤ substrate protein remaining % ≤ 80%) | A (0% ≤ substrate protein remaining % ≤ 80%) | A (0% ≤ substrate protein remaining % ≤ 80%) | A (0% ≤ substrate protein remaining % ≤ 80%) | A (0% ≤ substrate protein remaining % ≤ 80%)
4 | O=C1CCC(N2Cc3cc(CN4CCN(c5cc(Cl)c(Cl)cn5)CC4)ccc3C2=O)C(=O)N1 (stereo not drawn) [GT-04533, 3-(5-((4-(4,5-dichloropyridin-2-yl)piperazin-1-yl)methyl)-1-oxoisoindolin-2-yl)piperidine-2,6-dione] | 1 to 5 | 1 to 5 | 5 to 10 | 1 to 5 | 50 to 100 | 50 to 100 | 6.00 to 6.30 | A (0% ≤ substrate protein remaining % ≤ 80%) | A (0% ≤ substrate protein remaining % ≤ 80%) | A (0% ≤ substrate protein remaining % ≤ 80%) | A (0% ≤ substrate protein remaining % ≤ 80%) | A (0% ≤ substrate protein remaining % ≤ 80%) | A (0% ≤ substrate protein remaining % ≤ 80%)
5 | O=C1CCC(N2Cc3cc(CN4CC=C(c5ccnc(Cl)c5Cl)CC4)ccc3C2=O)C(=O)N1 (stereo not drawn) [GT-04559, 3-(5-((2',3'-dichloro-3,6-dihydro-[4,4'-bipyridin]-1(2H)-yl)methyl)-1-oxoisoindolin-2-yl)piperidine-2,6-dione] | 1 to 5 | 1 to 5 | 1 to 5 | 1 to 5 | 10 to 50 | 10 to 50 | > 6.30 | A (0% ≤ substrate protein remaining % ≤ 80%) | A (0% ≤ substrate protein remaining % ≤ 80%) | A (0% ≤ substrate protein remaining % ≤ 80%) | A (0% ≤ substrate protein remaining % ≤ 80%) | A (0% ≤ substrate protein remaining % ≤ 80%) | A (0% ≤ substrate protein remaining % ≤ 80%)
6 | O=C1CCC(N2Cc3cc(CN4CC=C(c5ccnc(F)c5F)CC4)ccc3C2=O)C(=O)N1 (stereo not drawn) [GT-04555, 3-(5-((2',3'-difluoro-3,6-dihydro-[4,4'-bipyridin]-1(2H)-yl)methyl)-1-oxoisoindolin-2-yl)piperidine-2,6-dione] | 5 to 10 | 10 to 50 | 10 to 50 | 5 to 10 | 100 to 500 | 500 to 1000 | 6.00 to 6.30 | A (0% ≤ substrate protein remaining % ≤ 80%) | A (0% ≤ substrate protein remaining % ≤ 80%) | A (0% ≤ substrate protein remaining % ≤ 80%) | A (0% ≤ substrate protein remaining % ≤ 80%) | A (0% ≤ substrate protein remaining % ≤ 80%) | A (0% ≤ substrate protein remaining % ≤ 80%)

Further lines, with some results ahead:

Row | IC50 (MM.1R) [nM] | IC50 [1] [nM] | IC50 (CAL-62) [nM] | IC50 (Jurkat) [nM] | IC50 (NCI-H1975) [nM] | IC50 [2] [nM] | pIC50 [3] | Compound | IKZF 1 substrate protein remaining % (IKZF1) | IKZF2 substrate protein remaining % (IKZF2) | Weel substrate protein remaining % (WEE1) | GSPT1 substrate protein remaining % (GSPT1) | CK1a substrate protein remaining % (CK1α) | IKZF3 substrate protein remaining % (IKZF3)
7 | 5 to 10 | 1 to 5 | 5 to 10 | 1 to 5 | 10 to 50 | 50 to 100 | 5.82 to 6.00 | O=C1CCC(N2Cc3cc(CN4CCC(c5cccc(F)c5F)CC4)ccc3C2=O)C(=O)N1 (stereo not drawn) [GT-04552, 3-(5-((4-(2,3-difluorophenyl)piperidin-1-yl)methyl)-1-oxoisoindolin-2-yl)piperidine-2,6-dione] | A (0% ≤ substrate protein remaining % ≤ 80%) | A (0% ≤ substrate protein remaining % ≤ 80%) | A (0% ≤ substrate protein remaining % ≤ 80%) | A (0% ≤ substrate protein remaining % ≤ 80%) | A (0% ≤ substrate protein remaining % ≤ 80%) | A (0% ≤ substrate protein remaining % ≤ 80%)
8 | 1 to 5 | 1 to 5 | 1 to 5 | 1 to 5 | 10 to 50 | 10 to 50 | 5.82 to 6.00 | O=C1CCC(N2Cc3cc(CN4CCC(c5cccc(F)c5Cl)CC4)ccc3C2=O)C(=O)N1 (stereo not drawn) [GT-04553, 3-(5-((4-(2-chloro-3-fluorophenyl)piperidin-1-yl)methyl)-1-oxoisoindolin-2-yl)piperidine-2,6-dione] | A (0% ≤ substrate protein remaining % ≤ 80%) | A (0% ≤ substrate protein remaining % ≤ 80%) | A (0% ≤ substrate protein remaining % ≤ 80%) | A (0% ≤ substrate protein remaining % ≤ 80%) | A (0% ≤ substrate protein remaining % ≤ 80%) | A (0% ≤ substrate protein remaining % ≤ 80%)
9 | 1 to 5 | 1 to 5 | 1 to 5 | < 1 | 5 to 10 | 10 to 50 | 6.00 to 6.30 | O=C1CCC(N2Cc3cc(CN4CCC(c5cccc(Cl)c5Cl)CC4)ccc3C2=O)C(=O)N1 (stereo not drawn) [GT-04551, 3-(5-((4-(2,3-dichlorophenyl)piperidin-1-yl)methyl)-1-oxoisoindolin-2-yl)piperidine-2,6-dione] | A (0% ≤ substrate protein remaining % ≤ 80%) | A (0% ≤ substrate protein remaining % ≤ 80%) | A (0% ≤ substrate protein remaining % ≤ 80%) | A (0% ≤ substrate protein remaining % ≤ 80%) | A (0% ≤ substrate protein remaining % ≤ 80%) | A (0% ≤ substrate protein remaining % ≤ 80%)
